Counter-ions that a name gives are not always drawn.
Tests used:
[1] = Rat liver microsomal metabolic stability; format: in vitro ADME; conditions: rat liver microsomes; for half-life at 1 µM: NADPH, 37°C; for CLint scaled at 1 µM: calculated from T1/2, fu defaulted to 1, read-out: CL(liver)
From the text: Metabolic stability affects the clearance rate, half-life, and oral bioavailability of compounds in the body, and is one of the most important ADME drug-like properties of compounds. Hepatocyte microsomal stability assay is a commonly used method for studying metabolic stability. In the present disclosure, rat liver microsomes are used to determine and investigate the metabolic stability of compounds.
Preparation of compound stock solution: an appropriate amount of the test compound and testosterone was taken, and a 1 mM stock solution was prepared with DMSO, which was stored in a refrigerator at 4°C.
Preparation of compound working solution: The 1 mM compound stock solution was taken respectively, and then diluted to 100 µM with acetonitrile-water (v:v = 1:1) to obtain the working solution.
Preparation of NADPH working solution: an appropriate amount of NADPH was weighed and dissolved in 16 mM MgCl2 to prepare a NADPH working solution with a concentration of 4.0 mM.
Preparation of rat liver microsome working solution: an appropriate amount of rat liver microsomes was taken and diluted with PBS to obtain a liver microsome working solution with a concentration of 1 mg/mL.
In the incubation system, 48 µL of PBS, 100 µL of rat liver microsome working solution, and 2 µL of the test compound working solution were sequentially added and mixed well. After pre-incubation at 37°C for 5 min, 50 µL of NADPH was added to initiate the reaction. After incubation for the corresponding time points, an appropriate amount of ice-cold acetonitrile containing an internal standard was added to terminate the reaction. The mixture was vortexed to mix well, centrifuged, and the supernatant was collected. The supernatant was injected into LC-MS/MS for detection of the residual metabolic amount of the compound.
Softwares of Excel, etc. were used for data processing according to the following formula. Ct = C0 •e^(−ke •t) [formula] when Ct = (1)/(2)C0 [formula] , T1/2 = (Ln2)/(ke) = (0.693)/(ke) [formula] CLint(mic) = (0.693)/(In vitro T1/2)•(1)/(mg/mL microsomal protein in reaction system) [formula] CLint(liver) = CLint(mic) •(mg microsomes)/(g liver)•(g liver)/(kg body weight) [formula] CL(liver) = (CLint(liver)×fu×Qh)/(CLint(liver)×fu+Qh) [formula] fu (unbound fraction in blood) was defaulted to be 1.

SOS1 = biological target: T1, SOS1 (Homo sapiens, UniProt Q07889); test: biochemical
T1 sequence (Q07889 1-1333): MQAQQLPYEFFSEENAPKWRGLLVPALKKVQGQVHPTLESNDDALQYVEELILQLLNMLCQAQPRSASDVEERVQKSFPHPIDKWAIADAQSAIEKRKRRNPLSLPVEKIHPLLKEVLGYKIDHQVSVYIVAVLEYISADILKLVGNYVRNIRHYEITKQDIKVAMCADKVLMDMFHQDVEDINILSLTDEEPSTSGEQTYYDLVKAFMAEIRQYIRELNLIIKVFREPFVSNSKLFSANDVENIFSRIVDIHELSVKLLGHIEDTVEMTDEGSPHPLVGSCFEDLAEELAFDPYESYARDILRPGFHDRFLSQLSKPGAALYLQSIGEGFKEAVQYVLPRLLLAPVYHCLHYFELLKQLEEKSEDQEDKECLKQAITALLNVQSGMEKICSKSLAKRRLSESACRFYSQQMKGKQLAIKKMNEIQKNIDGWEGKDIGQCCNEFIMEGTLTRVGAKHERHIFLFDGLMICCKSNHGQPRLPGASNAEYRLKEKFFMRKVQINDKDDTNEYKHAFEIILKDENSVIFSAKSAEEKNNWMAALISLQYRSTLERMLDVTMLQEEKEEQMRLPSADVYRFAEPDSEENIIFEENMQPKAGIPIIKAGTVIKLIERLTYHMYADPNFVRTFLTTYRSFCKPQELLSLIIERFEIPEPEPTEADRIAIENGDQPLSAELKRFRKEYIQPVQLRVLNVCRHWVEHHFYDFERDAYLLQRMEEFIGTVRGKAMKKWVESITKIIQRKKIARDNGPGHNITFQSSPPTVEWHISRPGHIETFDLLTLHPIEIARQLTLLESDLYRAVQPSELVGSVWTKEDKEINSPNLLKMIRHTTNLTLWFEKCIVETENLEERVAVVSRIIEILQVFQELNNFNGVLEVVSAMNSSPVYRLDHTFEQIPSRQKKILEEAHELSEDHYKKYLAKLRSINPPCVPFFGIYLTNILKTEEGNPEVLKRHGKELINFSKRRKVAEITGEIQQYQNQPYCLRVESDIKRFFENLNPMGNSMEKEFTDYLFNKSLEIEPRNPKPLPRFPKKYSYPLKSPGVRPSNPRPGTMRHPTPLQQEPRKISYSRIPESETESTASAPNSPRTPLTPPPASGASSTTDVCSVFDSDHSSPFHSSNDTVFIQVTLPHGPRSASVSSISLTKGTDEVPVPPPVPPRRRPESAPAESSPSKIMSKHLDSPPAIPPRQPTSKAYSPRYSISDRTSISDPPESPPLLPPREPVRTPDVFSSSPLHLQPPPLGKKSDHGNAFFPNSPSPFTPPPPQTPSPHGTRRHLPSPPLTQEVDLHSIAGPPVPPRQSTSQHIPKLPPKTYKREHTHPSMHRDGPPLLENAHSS

| Structure (SMILES) | half-life at 1 µM [1] [min] | CLint scaled at 1 µM [1] [mL/min/kg] | IC50 (SOS1) [nM] |
| --- | --- | --- | --- |
| CNc1nnc(N[C@H](C)c2cccc(C#N)c2C)c2cn(C3CC3)c(=O)cc12 [Example 38, (R)-3-(1-((6-cyclopropyl-1-(methylamino)-7-oxo-6,7-dihydropyrido[3,4-d]pyridazin-4-yl)amino)ethyl)-2-methylbenzonitrile] | 213 | 9.7 | 5 |
| CC(C)C1CCN(c2nnc(N[C@H](C)c3cccc(C(F)F)c3F)c3cn(C4(C)CC4)c(=O)cc23)CC1 [Example 121, (R)-4-((1-(3-(difluoromethyl)-2-fluorophenyl)ethyl)amino)-1-(4-isopropylpiperidin-1-yl)-6-(1-methylcyclopropyl) pyrido[3,4-d]pyridazin-7(6H)-one] | > 300 | < 7.23 | 5.5 |
| Cc1c([C@@H](C)Nc2nnc(N3CCC3)c3cc(=O)n(C4CC4)cc23)cccc1C(F)(F)F.O=CO [Example 50, (R)-1-(azetidin-1-yl)-6-cyclopropyl-4-((1-(2-methyl-3-(trifluoromethyl)phenyl)ethyl)amino)pyr ido[3,4-d]pyridazin-7(6H)-one formate] | 131 | 14.2 | 5.8 |
| C[C@@H](Nc1nnc(NC2(C)CC2)c2cc(=O)n(C3(C)CC3)cc12)c1cccc(C(F)F)c1F [Example 11, (R)-4-((1-(3-(difluoromethyl)-2-fluorophenyl)ethyl)amino)-6-(1-methylcyclopropyl)-1-((1-methylcyclopropyl)amino)pyrido[3,4-d]pyridazin-7(6H)-one] | 51.3 | 25.8 | 1.4 |
| C[C@@H](Nc1nnc(N2CCNCC2)c2cc(=O)n(C3(C)CC3)cc12)c1cccc(C(F)F)c1F [Example 78, (R)-4-((1-(3-(difluoromethyl)-2-fluorophenyl)ethyl)amino)-6-(1-methylcyclopropyl)-1-(piperazin-1-yl)pyrido[3,4-d]pyridazin-7(6H)-one] | 253 | 8.4 | 4.6 |
| C[C@@H](Nc1nnc(NC2CC2)c2cc(=O)n(C3(C)CC3)cc12)c1cccc(C(F)F)c1F [Example 10, (R)-1-(cyclopropylamino) -4-((1-(3-(difluoromethyl)-2-fluorophenyl)ethyl)amino)-6-(1-methylcyclopropyl) pyrido[3,4-d]pyridazin-7(6H)-one] | 29 | 33.6 | 5.8 |
| C[C@@H](Nc1nnc(N2CCC2)c2cc(=O)n(C3CC3)cc12)c1cccc(C(F)F)c1F [Example 15, (R)-1-(azetidin-1-yl)-6-cyclopropyl-4-((1-(3-(difluoromethyl)-2-fluorophenyl)ethyl)amino)pyrido[3,4-d]pyridazin-7(6H)-one] | 47.2 | 27 | 5.5 |
| Cc1c([C@@H](C)Nc2nnc(N3CC4CC4C3)c3cc(=O)n(C4CC4)cc23)cccc1C(F)(F)F (stereo partly drawn) [Example 56, 1-(3-azabicyclo[3.1.0]hexan-3-yl)-6-cyclopropyl-4-(((R)-1-(2-methyl-3-(trifluoromethyl)phenyl)ethyl)amino)pyr ido[3,4-d]pyridazin-7(6H)-one] | – | – | 10.6 |
| Cc1c(C#N)cccc1[C@@H](C)Nc1nnc(N2CCN(C3CCCC3)CC2)c2cc(=O)n(C3CC3)cc12 [Example 101, (R)-3-(1-((1-(4-cyclopentylpiperazin-1-yl)-6-cyclopropyl-7-oxo-6,7-dihydropyrido[3,4-d]pyridazin-4-yl)amino)ethyl)-2-methylbenzonitrile] | – | – | 8.9 |
| C[C@@H](Nc1nnc(NN2CCN(C)CC2)c2cc(=O)n(C3(C)CC3)cc12)c1cccc(C(F)(F)F)c1 [Example 159, (R)-6-(1-methylcyclopropyl)-1-((4-methylpiperazin-1-yl)amino)-4-((1-(3-(trifluoromethyl)phenyl)ethyl)amino)pyr ido[3,4-d]pyridazin-7(6H)-one formate] | – | – | 6.4 |
| C[C@@H](Nc1nnc(N2CCN(C3CC3)CC2)c2cc(=O)n(N3CC4CCCC4C3)cc12)c1cccc(C(F)F)c1F (stereo partly drawn) [Example 142, 4-(((R)-1-(3-(difluoromethyl)-2-fluorophenyl)ethyl)amino)-6-(hexahydrocyclopenta[c]pyrrol-2(1H)-yl)-1-(4-cyclopropylpiperazin-1-yl)-pyrido[3,4-d]pyridazin-7(6H)-one] | – | – | 10.6 |
| CCN(CC)c1nnc(N[C@H](C)c2cccc(C(F)F)c2F)c2cn(C3(C)CC3)c(=O)cc12 [Example 29, (R)-1-(diethylamino)-4-(((R)1-(3-(difluoromethyl)-2-fluorophenyl)ethyl)amino)-6-(1-methylcyclopropyl) pyrido[3,4-d]pyridazin-7(6H)-one] | – | – | 10.6 |
| C[C@@H](Nc1nnc(N2CC3(CC(O)C3)C2)c2cc(=O)n(C3(C)CC3)cc12)c1cccc(C(F)F)c1F [Example 196, (R)-4-((1-(3-(difluoromethyl)-2-fluorophenyl)ethyl)amino)-1-(6-hydroxy-2-azaspiro[3.3]heptan-2-yl)-6-(1-methylcyclopropyl) pyrido[3,4-d]pyridazin-7(6H)-one] | – | – | 3.7 |
| Cc1c(C#N)cccc1[C@@H](C)Nc1nnc(N2CCN(C)CC2)c2cc(=O)n(N3CC4CCCC4C3)cc12 (stereo partly drawn) [Example 150, 3-((1R)-1-((6-(hexahydrocyclopenta[c]pyrrol-2(1H)-yl)-1-(4-methylpiperazin-1-yl)-7-oxo-6,7-dihydropyrido[3,4-d]pyridazin-4-yl)amino)ethyl)-2-methylbenzonitrile] | – | – | 5.5 |

— patent EP4722213A1, “NITROGEN-CONTAINING FUNCTIONAL GROUP-SUBSTITUTED PYRIDAZINOPYRIDONE DERIVATIVE AND USE THEREOF” (Sichuan Huiyu Pharmaceutical Co., Ltd., priority 2023, dated 2024)
